Here are results for ten molecules from patent US6448034B1, “Production of variant nisin” (priority 1994, dated 2002).

Test [1] relates to Lactobacillus helveticus CH-1. Put plainly: Plate diffusion bioassay of cell-free extracts / culture supernatants. In kind it is cell-based. As to conditions: for Activity (% of wt): antimicrobial activity in culture supernatants of gene-replaced strains, plate diffusion bioassays; for nisin activity (% of wild type), gene replacement: functional nisA gene incorporated in the chromosome of FI7990 in place of nisA deletion. The protocol:
150 μl samples of cell free extracts from strains: 4, FI5876; 5, FI7990; 6, FI8070; 7, FI8198; 8, FI8199 were loaded into wells bored in MRS agar seeded with the indicator strains Lactobacillus helveticus CH-1. Plates were incubated overnight at 42° C. Standards included on the assay plate are: 1,50; 2,100; 3,200; 9,300; 10,400 U/ml.
Nisin activity in Lactococcal strains was assayed by both deferred and direct means. Plate diffusion bioassays were performed as previously described (Dodd et al (1992) Appl. Environ. Microbiol. 58, 3683-3693. Colonies growing on the surface of a GM17 plate were directly assayed by inverting over chloroform for 12 minutes and overlaying with agar seeded with the nisin sensitive L. lactis strain MG1614. Plates were incubated overnight and zone sizes around colonies compared with those of controls. Nisin immunity was determined by streaking cultures on a series of GM17 agar plates containing an increasing concentration of nisin and assessing the degree of growth at the different nisin levels. Control cultures (FI5876, positive) and MG1614 (negative) were included on each plate.
This corresponds to an increase of approximately 50% of nisin A levels, under the conditions used here (Table 1). This higher level of production was not found in the extracts of FI8199, producing the double mutant nisin A/Dha5A,Dha33A. […] In all cases the yield for a particular nisin variant was higher when using this gene replacement strategy than when the equivalent plasmid-encoded gene was employed in a plasmid complementation system (Table 3, Dodd et al (1992) (1993) supra).

For test [2], the system named is sensitive L. Lactis strain MG1614. Nature of the test: Minimum inhibitory concentration (MIC). In kind it is cell-based. As to conditions: Table 5.
Test [3] has as its system FI7847 [nisA-(fs)]. Nature of the test: Induction by nisin / nisin variants as inducing agent. Format: cell-based, L. lactis. Set-up: Induction: unit not given here. As to conditions: for Induction: strain FI7847. The method, then:
A particularly preferred embodiment of the third aspect of the invention is wherein the cells are cultured in the presence of nisA nisin or a variant nisin which can induce nisin expression. […] By adding sub-inhibitory concentrations of nisin to the growth medium, during fermentation, higher levels of the variant nisin are produced. Any variants that are less efficient as inducing agents benefit from the inclusion of nisin in the growth medium (ie a nisin induction step in the purification procedure). The amount of induction varies depending on the initial induction capacity of any particular variant (with I30W nisin A production more than doubled as a result of induction). Induction may be routinely included in the method as a means of maximising production levels. Any concerns about contamination with the wild type molecule are minimal as the nisin concentration required for induction is negligible compared to the amount of nisin variant being purified. Conveniently, the nisA nisin is a minimum amount that provides maximal induction of nisin production. This amount can be determined empirically by a person skilled in the art. Suitable nisA nisin concentrations for induction in this embodiment are from 1 nM to 500 nM, preferably 10 nM to 250 nM, more preferably 50 nM to 150 nM, most preferably 100 nM.
In some circumstances it is desirable to add nisA nisin as an inducer.

The test system of test [4] is Lactobacillus helveticus CH-1. The following applies: plate diffusion bioassay; plasmid-encoded nisA gene complementing nisA deficiency in host strain FI7332; cited from earlier work.
Test [5] concerns sensitive indicator strains. The following applies: work described in WO 93/20213; cited from earlier work.

Converted amounts (≈) assume the structure as drawn.

What is called MIC is the smallest concentration in the dilution series that meets the test's criterion for growth inhibition. `C=C(NC(=O)[C@@H](NC(=O)[C@H](Cc1c[nH]cn1)NC(=O)[C@@H](NC(=O)[C@H](CO)NC(=O)[C@@H]1CS[C@@H](C)[C@H]2NC(=O)[C@H](C)NC(=O)[C@H](NC(=O)[C@H](CCCCN)NC(=O)[C@H](CCSC)NC(=O)[C@H](CC(N)=O)NC(=O)[C@@H]3CS[C@@H](C)[C@@H](NC(=O)[C@H](CCCCN)NC(=O)[C@@H]4CS[C@@H](C)[C@@H](NC(=O)[C@@H]5CSC[C@@H](NC(=O)/C(=C/C)NC(=O)[C@@H](N)[C@@H](C)CC)C(=O)N[C@@H]([C@@H](C)CC)C(=O)NC(=C)C(=O)N[C@@H](CC(C)C)C(=O)N5)C(=O)N5CCC[C@H]5C(=O)NCC(=O)N4)C(=O)NCC(=O)N[C@@H](C)C(=O)N[C@@H](CC(C)C)C(=O)N[C@@H](CCSC)C(=O)NCC(=O)N3)[C@H](C)SC[C@H](NC2=O)C(=O)N[C@@H](CCCCN)C(=O)N1)[C@@H](C)CC)C(C)C)C(=O)N[C@@H](CCCCN)C(=O)O` [H27K]: the “Activity (% of wt)” value in test [1] is 100 % of wt. In test [2], the MIC is 130 µg/mL (≈ 38.9 µM). In test [3] (inducing agent at 100 ng ml^−1), this molecule displayed an Induction of 86.

As to `C=C(NC(=O)[C@@H](NC(=O)[C@H](Cc1c[nH]cn1)NC(=O)[C@H](Cc1c[nH]c2ccccc12)NC(=O)[C@H](CO)NC(=O)[C@@H]1CS[C@@H](C)[C@H]2NC(=O)[C@H](C)NC(=O)[C@H](NC(=O)[C@H](CCCCN)NC(=O)[C@H](CCSC)NC(=O)[C@H](CC(N)=O)NC(=O)[C@@H]3CS[C@@H](C)[C@@H](NC(=O)[C@H](CCCCN)NC(=O)[C@@H]4CS[C@@H](C)[C@@H](NC(=O)[C@@H]5CSC[C@@H](NC(=O)/C(=C/C)NC(=O)[C@@H](N)[C@@H](C)CC)C(=O)N[C@@H]([C@@H](C)CC)C(=O)NC(=C)C(=O)N[C@@H](CC(C)C)C(=O)N5)C(=O)N5CCC[C@H]5C(=O)NCC(=O)N4)C(=O)NCC(=O)N[C@@H](C)C(=O)N[C@@H](CC(C)C)C(=O)N[C@@H](CCSC)C(=O)NCC(=O)N3)[C@H](C)SC[C@H](NC2=O)C(=O)N[C@@H](Cc2c[nH]cn2)C(=O)N1)C(C)C)C(=O)N[C@@H](CCCCN)C(=O)O` [I30W], the “Activity (% of wt)” value in test [1] is listed as <1 % of wt. Besides, the MIC in test [2] came out at 160 µg/mL (≈ 46.7 µM). In addition, in test [3], the “function as inducer of its own biosynthesis” value is reported as “does not function well as an inducer of its own biosynthesis”. The molecule further registered an Induction in test [3] (inducing agent at 100 ng ml^−1) of 41.

Regarding `C=C(NC(=O)[C@@H](NC(=O)[C@H](Cc1c[nH]cn1)NC(=O)[C@@H](NC(=O)[C@H](CO)NC(=O)[C@@H]1CS[C@@H](C)[C@H]2NC(=O)[C@H](C)NC(=O)[C@H](NC(=O)[C@H](CCCCN)NC(=O)[C@H](CCSC)NC(=O)[C@H](CC(N)=O)NC(=O)[C@@H]3CS[C@@H](C)[C@@H](NC(=O)[C@H](CC(C)C)NC(=O)[C@@H]4CS[C@@H](C)[C@@H](NC(=O)[C@@H]5CSC[C@@H](NC(=O)/C(=C/C)NC(=O)[C@@H](N)[C@@H](C)CC)C(=O)N[C@@H]([C@@H](C)CC)C(=O)NC(=C)C(=O)N[C@@H](CC(C)C)C(=O)N5)C(=O)N5CCC[C@H]5C(=O)NCC(=O)N4)C(=O)NCC(=O)N[C@@H](C)C(=O)N[C@@H](CC(C)C)C(=O)N[C@@H](CCSC)C(=O)NCC(=O)N3)[C@H](C)SC[C@H](NC2=O)C(=O)N[C@@H](Cc2c[nH]cn2)C(=O)N1)[C@@H](C)CC)C(C)C)C(=O)N[C@@H](CCCCN)C(=O)O` [K12L], the “Activity (% of wt)” value in test [1] is listed as 10 % of wt. In addition, the MIC in test [2] came to 130 µg/mL (≈ 38.9 µM). For the same molecule, the Induction in test [3] (inducing agent at 100 ng ml^−1) is 81.

`C=C(NC(=O)[C@@H](NC(=O)[C@H](Cc1c[nH]cn1)NC(=O)[C@@H](NC(=O)[C@H](CO)NC(=O)[C@@H]1CS[C@@H](C)[C@H]2NC(=O)[C@H](C)NC(=O)[C@H](NC(=O)[C@H](CCCCN)NC(=O)[C@H](CCSC)NC(=O)[C@H](CC(N)=O)NC(=O)[C@@H]3CS[C@@H](C)[C@@H](NC(=O)[C@H](CCCCN)NC(=O)[C@@H]4CS[C@@H](C)[C@@H](NC(=O)[C@@H]5CSC[C@@H](NC(=O)/C(=C/C)NC(=O)[C@@H](N)[C@@H](C)CC)C(=O)N[C@@H]([C@@H](C)CC)C(=O)N[C@@H](C)C(=O)N[C@@H](CC(C)C)C(=O)N5)C(=O)N5CCC[C@H]5C(=O)NCC(=O)N4)C(=O)NCC(=O)N[C@@H](C)C(=O)N[C@@H](CC(C)C)C(=O)N[C@@H](CCSC)C(=O)NCC(=O)N3)[C@H](C)SC[C@H](NC2=O)C(=O)N[C@@H](Cc2c[nH]cn2)C(=O)N1)[C@@H](C)CC)C(C)C)C(=O)N[C@@H](CCCCN)C(=O)O` [nisin A (Dha5A)]: the “Activity (% of wt)” value in test [1] is recorded as 100 % of wt. The “nisin activity (% of wild type), gene replacement” value in test [1] (plate diffusion bioassay) is given as 100 % of wild type. In test [2], this molecule showed an MIC of 250 µg/mL (≈ 74.5 µM). Also, the Induction in test [3] (inducing agent at 100 ng ml^−1) was 114; in test [3] (inducing agent at 1 mg ml^−1), 107. In addition, the “nisin activity (% of wild type), complementation” value in test [4] is given as 25 % of wild type. For the same molecule, the “antimicrobial activity against sensitive indicator strains” value in test [5] is given as “retained their antimicrobial activity”.

For the molecule `C=C1NC(=O)[C@H]([C@@H](C)CC)NC(=O)[C@H](NC(=O)/C(=C/C)NC(=O)[C@@H](N)[C@@H](C)CC)CSC[C@@H](C(=O)N[C@H]2C(=O)N3CCC[C@H]3C(=O)NCC(=O)N[C@H](C(=O)N[C@@H](CCCCN)C(=O)N[C@H]3C(=O)NCC(=O)N[C@@H](C)C(=O)N[C@@H](CC(C)C)C(=O)N[C@@H](CCSC)C(=O)NCC(=O)N[C@H](C(=O)N[C@@H](CC(N)=O)C(=O)N[C@@H](CCSC)C(=O)N[C@@H](CCCCN)C(=O)N[C@H]4C(=O)N[C@@H](C)C(=O)N[C@H]5C(=O)N[C@@H](CS[C@H]4C)C(=O)N[C@@H](Cc4c[nH]cn4)C(=O)N[C@H](C(=O)N[C@@H](CO)C(=O)N[C@H](C(=O)N[C@@H](Cc4c[nH]cn4)C(=O)N[C@H](C(=O)N[C@@H](C)C(=O)N[C@@H](CCCCN)C(=O)O)C(C)C)[C@@H](C)CC)CS[C@H]5C)CS[C@H]3C)CS[C@H]2C)NC(=O)[C@H](CC(C)C)NC1=O` [nisin A (Dha33A)], the “Activity (% of wt)” value in test [1] was 150 % of wt. For the same molecule, the “increase over nisin A levels” value in test [1] (cell extract from FI8198, plate diffusion bioassay) is “approximately 50%”. In addition, the “zone of inhibition / inhibitory effect compared with parent strain FI5876” value in test [1] (cell extracts of gene-replaced strains, plate diffusion bioassay) is listed as “larger than that of the parent strain”. Moreover, the “nisin activity (% of wild type), gene replacement” value in test [1] (plate diffusion bioassay) was 150 % of wild type. Moreover, the MIC in test [2] came out at 250 µg/mL (≈ 74.5 µM). Also, the values for the Induction in test [3] (inducing agent at 100 ng ml^−1) and in test [3] (inducing agent at 1 mg ml^−1) were 17 and 101, respectively. The “nisin activity (% of wild type), complementation” value in test [4] is listed as 10 % of wild type. Further, the “antimicrobial activity against sensitive indicator strains” value in test [5] is “retained their antimicrobial activity”.

On to “H27K, H31K (MSTKDFNLDLVSVSKKDSGASPRITSISLCTPGCKTGALMGCNMKTATCKCSIKVSK; listed as Lactococcus sp.)”, for which the “Activity (% of wt)” value in test [1] was 10 % of wt.

As for “H27W (MSTKDFNLDLVSVSKKDSGASPRITSISLCTPGCKTGALMGCNMKTATCWCSIHVSK; listed as Lactococcus sp.)”, the “Activity (% of wt)” value in test [1] is reported as <1 % of wt.

With “H31K (MSTKDFNLDLVSVSKKDSGASPRITSISLCTPGCKTGALMGCNMKTATCHCSIKVSK; listed as Lactococcus sp.)”, the “Activity (% of wt)” value in test [1] is given as 25 % of wt.

As for “S5A, H27W (MSTKDFNLDLVSVSKKDSGASPRITSIALCTPGCKTGALMGCNMKTATCWCSIHVSK; listed as Lactococcus sp.)”, the “Activity (% of wt)” value in test [1] is given as 10 % of wt.

In the case of “ΔM21: variant nisin from nisA M21 deletion (SEQ. ID. No. 41), produced by strain FI8290 (MSTKDFNLDLVSVSKKDSGASPRITSISLCTPGCKTGALMGCNKTATCHCSIHVSK; listed as Lactococcus sp.)”, the “Activity (% of wt)” value in test [1] is <1 % of wt.
